Reference: patent publication US9434741B2, “Thieno[2,3-d]pyrimidine derivatives, preparation method and use thereof” (FUJIAN INSTITUTE OF RESEARCH ON THE STRUCTURE OF MATTER, …, priority 2012, dated 2016)

How the values were obtained:
[1] = system: human lung cancer cell lines (A549); test: SRB screening of inhibitory activity against human lung cancer cell lines (A549); type: cell-based; conditions: A549 cells, compound concentration 1×10^−4 M, SRB method; for inhibition at 100 µM: Homo sapiens, 72 h, read-out: Inhibitory ratio (%)
Text: (§1) The inhibitory activity against colon cancer cell lines (HCT-116) and human lung cancer cell lines (A549) were screened with an SRB method. The procedure of screening was described in the reference (Li M. H., Miao Z. H., Tan W. F. et al. Clin. Cancer Res. 2004, 10(24): 8266-8274).
(§2) Detailed experimental procedure is as follows:
(§3) (1) According to the growth rate of tumor cells, colon cancer cell lines (HCT-116) in logarithmic growth phase were inoculated in 96-well culture plates and allowed to adhere to the wall for 24 h. The medicants with a concentration of 1×10^−4 M were added. Three replicate wells were set for the concentration, and saline control and non-apoptotic well of the corresponding concentration were set. The tumor/cancer cells were incubated for 72 hours at 37 in 5% CO2; (2) the plates were taken out, and the cells were fixed in each well with 10% cold […] (TCA) solution at 4 for 1 hour; (3) the fixation fluid was removed, and the plates were rinsed 5 times with distilled water and naturally dried in air; (4) SRB solution prepared from glacial acetic acid (1%) was added to stain at room temperature for 15 min; (5) the supernatant was removed, and the residue was washed 5 times with 1% acetic acid and air-dried; (6) finally Tris solution was added and the plates were shaken on a plate shaker for 5 min. Absorbance value at 560 nm (A560) was determined by using a wavelength-tunable microplate reader. Enzyme inhibitory ratio was calculated with the following formula: […]
(§4) The activities of the compounds represented by formula (I) or salts thereof of inhibiting colon cancer cell lines (HCT-116) and human lung cancer cell lines A549 at a concentration of 1×10^−4 M were determined.

[2] = system: colon cancer cell lines (HCT-116); test: SRB screening of inhibitory activity against colon cancer cell lines (HCT-116); type: cell-based; conditions: HCT-116 cells, compound concentration 1×10^−4 M, 72 hours incubation, SRB method, A560; for inhibition at 100 µM: Homo sapiens, read-out: Inhibitory ratio (%)
Text: as §1, §2, §3, §4

Structure (SMILES): Cc1csc2ncnc(OCc3cc(-c4ccccc4)no3)c12 [Compound S-1, 5-methyl-4-((3-phenyl-isoxazol-5-yl)-methoxy-)-thieno[2,3-d]pyrimidine]
- inhibition at 100 µM [1]: 85%

Structure (SMILES): Cc1ccc(-c2cc(COc3ncnc4scc(C)c34)on2)cc1 [Compound S-2]
- inhibition at 100 µM [1]: 80%

Structure (SMILES): COc1ccc(-c2cc(COc3ncnc4scc(C)c34)on2)cc1 [Compound S-3]
- inhibition at 100 µM [1]: 86.4%
- Inhibitory ratio (%) [2]: 70.0%
- inhibition at 100 µM [2]: 70%

Structure (SMILES): Cc1csc2ncnc(OCc3cc(-c4ccc(Cl)cc4)no3)c12 [Compound S-5]
- inhibition at 100 µM [1]: 80.8%

Structure (SMILES): Cc1csc2ncnc(OCc3cc(-c4ccccc4Cl)no3)c12 [Compound S-6]
- inhibition at 100 µM [1]: 75.6%

Structure (SMILES): Cc1csc2ncnc(OCc3cc(-c4ccc(Br)cc4)no3)c12 [Compound S-8]
- inhibition at 100 µM [1]: 85.9%

Structure (SMILES): CCc1cc2c(OCc3cc(-c4ccc(OC)cc4)no3)ncnc2s1 [Compound S-83]
- inhibition at 100 µM [1]: 89.4%
- inhibition at 100 µM [2]: 69.6%

Structure (SMILES): CCc1cc2c(OCc3cc(-c4ccc(Cl)cc4Cl)no3)ncnc2s1 [Compound S-87]
- inhibition at 100 µM [2]: 72.7%

Structure (SMILES): CCc1cc2c(OCc3cc(-c4ccc(Br)cc4)no3)ncnc2s1 [Compound S-88]
- inhibition at 100 µM [2]: 60.9%

Structure (SMILES): Cc1sc2ncnc(OCc3cc(-c4ccccc4)no3)c2c1C [Compound S-101]
- Inhibitory ratio (%) [1]: 88.0%
- inhibition at 100 µM [1]: 88%
- inhibition at 100 µM [2]: 68.8%

Structure (SMILES): Cc1ccc(-c2cc(COc3ncnc4sc(C)c(C)c34)on2)cc1 [Compound S-102]
- inhibition at 100 µM [2]: 62.9%

Structure (SMILES): COc1ccc(-c2cc(COc3ncnc4sc(C)c(C)c34)on2)cc1 [Compound S-103]
- inhibition at 100 µM [2]: 71.1%

Structure (SMILES): Cc1sc2ncnc(OCc3cc(-c4ccccc4Cl)no3)c2c1C [Compound S-106]
- inhibition at 100 µM [1]: 71.6%

Structure (SMILES): Cc1sc2ncnc(OCc3cc(-c4ccc(Cl)cc4Cl)no3)c2c1C [Compound S-107]
- inhibition at 100 µM [2]: 72.9%

Structure (SMILES): c1ccc(-c2cc(COc3ncnc4sc5c(c34)CCCC5)on2)cc1 [Compound S-121]
- inhibition at 100 µM [1]: 54.1%
